Test results as given in patent EP4725507A1, “POLYPEPTIDE CONJUGATE, PHARMACEUTICAL COMPOSITION CONTAINING POLYPEPTIDE CONJUGATE AND USE THEREOF” (Nanjing Anji Biotechnology Co., Ltd., priority 2023, dated 2025).
Values after ≈ are worked out from the molar mass of the structure shown.

Columns and labels:
[1] = system: A549 (non-small cell lung cancer cells); assay: Tumor cell proliferation inhibition (CCK8); format: cell-based; settings: Homo sapiens, 72 h
From the text: (§1) Human highly metastatic hepatocellular carcinoma cells HCCLM3, human highly metastatic gastric cancer cells MKN45, human gastric cancer cells BGC-823 and MGC-803, non-small cell lung cancer cells A549, human pancreatic cancer cells ASPC-1, human colon cancer cells LoVo, human ovarian cancer cells A2780, human cervical cancer cells SiHa, human malignant melanoma cells SK-mel-2 and M14, human osteosarcoma cells Saos-2, human bladder transitional cell carcinoma cells T24, human brain glioblastoma cells U87-MG, human lymphoma cells Raji, and human epidermal cancer cells A431 were selected for the experiment. Among them, HCCLM3 cells, MKN45 cells, BGC-823 cells, MGC-803 cells, A431 cells and A549 cells were provided by Nanjing Anji Biotechnology Co., Ltd., and the other cells were provided by Nanjing Ouji Pharmaceutical Technology Service Co., Ltd.
(§2) The aforementioned tumor cells were preserved in a medium containing 10% fetal bovine serum and 1% penicillin-streptomycin, and incubated at 37°C with 5% CO2 and 95% humidity. The aforementioned tumor cells were cultured in T75 flasks with an experimental cell density of 80%. The aforementioned tumor cell lines were mycoplasma-negative.
(§3) Tumor cells in the logarithmic growth phase were taken for the experiment. The cells were digested, counted, and prepared into a cell suspension with a concentration of 1×10^5 cells/mL, which was then inoculated into a 96-well plate (100 µL per well). The 96-well plate was incubated in a 37°C, 5% CO2 incubator for 24 hours. […] After incubating the plate in the incubator for 72 h, the cell morphology of each group was observed under a microscope. Then, 10 µL of CCK8 solution (Nanjing Enjing Biotechnology Co., Ltd.) was added to each well, and the plate was further incubated in the cell incubator for 4 h. After incubation, the absorbance was measured at 450 nm, and the tumor cell proliferation inhibition rate was calculated. The efficiency ratio was the ratio of the IC50 value of the free drug to that of the polypeptide conjugate. Table 1 Tumor cell proliferation inhibition rates of polypeptide conjugates

[2] = system: ASPC-1 (human pancreatic cancer cells); assay: Tumor cell proliferation inhibition (CCK8); format: cell-based; settings: ASPC1, 72 h
From the text: as §1, §2, §3

[3] = system: HCCLM3 (human highly metastatic hepatocellular carcinoma cells); assay: Tumor cell proliferation inhibition (CCK8); format: cell-based; settings: 72 h
From the text: as §1, §2, §3

[4] = system: LoVo (human colon cancer cells); assay: Tumor cell proliferation inhibition (CCK8); format: cell-based; settings: 72 h
From the text: as §1, §2, §3

[5] = system: M14 (human malignant melanoma cells); assay: Tumor cell proliferation inhibition (CCK8); format: cell-based; settings: 72 h
From the text: as §1, §2, §3

[6] = system: SK-mel-2 (human malignant melanoma cells); assay: Tumor cell proliferation inhibition (CCK8); format: cell-based; settings: 72 h
From the text: as §1, §2, §3

[7] = system: SiHa (human cervical cancer cells); assay: Tumor cell proliferation inhibition (CCK8); format: cell-based; settings: 72 h
From the text: as §1, §2, §3

[8] = system: U87-MG (human brain glioblastoma cells); assay: Tumor cell proliferation inhibition (CCK8); format: cell-based; settings: U-87 MG, 72 h
From the text: as §1, §2, §3

[9] = system: non-small cell lung cancer A549 xenograft tumors; assay: In vivo tumor-inhibitory activity of DOC-AI, A549 xenograft; parameters: species or system BALB/c nude mice; settings: 6.20 µmol/Kg, 4 days on, 3 days off until day 21
Method: Non-small cell lung cancer A549 cells in the vigorous growth stage were taken and inoculated subcutaneously into the right axilla of BALB/c nude mice (Nanjing Zhonghua Biotechnology Co., Ltd.) under sterile conditions, with a cell inoculation amount of 1×10^7. The diameter of transplanted tumors in nude mice was measured with a vernier caliper. When the tumors grew to approximately 50 mm^3, 30 tumor-bearing nude mice with good growth status and relatively uniform tumor size were selected and divided into 5 groups, with 6 mice in each group. The administration frequency was continuous administration for 4 days followed by an interval of 3 days, and this cycle was repeated until day 21. […] The tumor diameter was measured every other day, and the body weight of the nude mice was weighed simultaneously during the measurement of the tumor diameter. After 21 days of administration, the nude mice were euthanized, the tumor inhibition rate (%) was calculated, and the tumor masses were peeled off and weighed.

[10] = system: gastric cancer MKN45 xenograft tumors; assay: In vivo tumor-inhibitory activity of DOC-AI, MKN45 xenograft; parameters: species or system BALB/c nude mice; settings: 6.20 µmol/Kg
Method: (§4) Non-small cell lung cancer A549 cells and human gastric cancer MKN-45 cells were preserved in F12-K medium containing 10% fetal bovine serum and 1% penicillin + streptomycin, and incubated at 37°C with 5% CO2 and 95% humidity. The aforementioned cells were cultured in T175 flasks with an experimental cell density of 80%. The aforementioned cell lines were mycoplasma-negative. Both A549 cells and MKN-45 cells were provided by Nanjing Anji Biotechnology Co., Ltd.
Gastric cancer MKN45 cells in the vigorous growth stage were taken and inoculated subcutaneously into the right axilla of BALB/c nude mice (Hangzhou Ziyuan Laboratory Animal Technology Co., Ltd.) under sterile conditions, with a cell inoculation amount of 1×10^7. The diameter of transplanted tumors in nude mice was measured with a vernier caliper. When the tumors grew to approximately 50 mm^3, 18 tumor-bearing nude mice with good growth status and relatively uniform tumor size were selected and divided into 3 groups, with 6 mice in each group. The administration frequency was once every 3 days, and this cycle was repeated until day 21. The anti-tumor effect in the nude mice was dynamically observed by measuring the tumor diameter. The tumor diameter was measured every other day, and the body weight of the nude mice was weighed simultaneously during the measurement of the tumor diameter. After 21 days of administration, the nude mice were euthanized, the tumor inhibition rate (%) was calculated, and the tumor masses were peeled off and weighed. Table 7 Results of Detection of In Vivo Tumor-Inhibitory Activity of DOC-AI

[11] = Solubility in water (HPLC, saturated solution); format: physicochemical; settings: thermodynamic from solid, in water (ultrapure)
Method: 25, 50, 100, 200, 300, and 400 µL of the above stock solutions were precisely measured, added into 1 mL volumetric flasks, and diluted to the mark with methanol to obtain a series of standard solutions with concentrations of 25, 50, 100, 200, 300, and 400 µg/mL, respectively. The peak areas of the series of standard solutions were detected by HPLC (mobile phase: 0.065% TFA in water + 0.05% TFA; chromatographic column: YMC-Triart C18; wavelength: 220 nm) to construct a concentration-peak area standard curve, where the abscissa represents concentration and the ordinate represents peak area.
The peak area of the sample was detected by HPLC, and its saturation in water was calculated through the concentration-peak area standard curve. Table 6 Results of detection of solubility of polypeptide conjugates in water

[12] = system: A2780 (human ovarian cancer cells); assay: Tumor cell proliferation inhibition (CCK8); format: cell-based; settings: 72 h
From the text: as §1, §2
as §3, with “h.” for “h. After incubation, the absorbance was measured at 450 nm, and the tumor cell proliferation inhibition rate was calculated. The efficiency ratio was the ratio of the IC50 value of the free drug to that of the polypeptide conjugate. Table 1 Tumor cell proliferation inhibition rates of polypeptide conjugates”

[13] = system: A431 (human epidermal cancer cells); assay: Tumor cell proliferation inhibition (CCK8); format: cell-based; settings: A-431, 72 h
From the text: as §1, §2
as §3, with “h.” for “h. After incubation, the absorbance was measured at 450 nm, and the tumor cell proliferation inhibition rate was calculated. The efficiency ratio was the ratio of the IC50 value of the free drug to that of the polypeptide conjugate. Table 1 Tumor cell proliferation inhibition rates of polypeptide conjugates”

[14] = system: BGC-823 (human gastric cancer cells); assay: Tumor cell proliferation inhibition (CCK8); format: cell-based; settings: 72 h
From the text: as §1, §2
as §3, with “h.” for “h. After incubation, the absorbance was measured at 450 nm, and the tumor cell proliferation inhibition rate was calculated. The efficiency ratio was the ratio of the IC50 value of the free drug to that of the polypeptide conjugate. Table 1 Tumor cell proliferation inhibition rates of polypeptide conjugates”

[15] = system: MGC-803 (human gastric cancer cells); assay: Tumor cell proliferation inhibition (CCK8); format: cell-based; settings: 72 h
From the text: as §1, §2
as §3, with “h.” for “h. After incubation, the absorbance was measured at 450 nm, and the tumor cell proliferation inhibition rate was calculated. The efficiency ratio was the ratio of the IC50 value of the free drug to that of the polypeptide conjugate. Table 1 Tumor cell proliferation inhibition rates of polypeptide conjugates”

[16] = system: MKN45 (human highly metastatic gastric cancer cells); assay: Tumor cell proliferation inhibition (CCK8); format: cell-based; settings: MKN-45, 72 h
From the text: as §1, §2
as §3, with “h.” for “h. After incubation, the absorbance was measured at 450 nm, and the tumor cell proliferation inhibition rate was calculated. The efficiency ratio was the ratio of the IC50 value of the free drug to that of the polypeptide conjugate. Table 1 Tumor cell proliferation inhibition rates of polypeptide conjugates”

[17] = system: Raji (human lymphoma cells); assay: Tumor cell proliferation inhibition (CCK8); format: cell-based; settings: 72 h
From the text: as §1, §2
as §3, with “h.” for “h. After incubation, the absorbance was measured at 450 nm, and the tumor cell proliferation inhibition rate was calculated. The efficiency ratio was the ratio of the IC50 value of the free drug to that of the polypeptide conjugate. Table 1 Tumor cell proliferation inhibition rates of polypeptide conjugates”

[18] = system: Saos-2 (human osteosarcoma cells); assay: Tumor cell proliferation inhibition (CCK8); format: cell-based; settings: 72 h
From the text: as §1, §2
as §3, with “h.” for “h. After incubation, the absorbance was measured at 450 nm, and the tumor cell proliferation inhibition rate was calculated. The efficiency ratio was the ratio of the IC50 value of the free drug to that of the polypeptide conjugate. Table 1 Tumor cell proliferation inhibition rates of polypeptide conjugates”

[19] = system: T24 (human bladder transitional cell carcinoma cells); assay: Tumor cell proliferation inhibition (CCK8); format: cell-based; settings: 72 h
From the text: as §1, §2
as §3, with “h.” for “h. After incubation, the absorbance was measured at 450 nm, and the tumor cell proliferation inhibition rate was calculated. The efficiency ratio was the ratio of the IC50 value of the free drug to that of the polypeptide conjugate. Table 1 Tumor cell proliferation inhibition rates of polypeptide conjugates”

[20] = system: human gastric cancer cell MKN45 xenograft tumors; assay: In vivo tumor-inhibitory activity of PTX-AI, MKN45 xenograft; parameters: species or system BALB/c nude mice; settings: 5.28 µmol/Kg, once every 3 days, 21 days
Method: as §4
Human gastric cancer cells MKN-45 in the vigorous growth stage were taken and inoculated subcutaneously into the right axilla of BALB/c nude mice under sterile conditions, with a cell inoculation amount of 5×10^6. The diameter of transplanted tumors in nude mice was measured with a vernier caliper. When the tumors grew to approximately 50mm^3, […] tumor-bearing nude mice with good growth status and relatively uniform tumor size were selected, and divided into 6 groups, including 10 mice in the model group and 8 mice in each of the remaining groups. The anti-tumor effect of the test substance was dynamically observed by measuring the tumor diameter. The tumor diameter was measured every other day, and the body weight of the nude mice was weighed simultaneously during the measurement of the tumor diameter. After 21 days of administration, the nude mice were euthanized, the tumor inhibition rate (%) was calculated, and the tumor masses were peeled off and weighed. Table 3 Detection of In Vivo Tumor-Inhibitory Activity of PTX-AI

[21] = system: A431 (human epidermal cancer cells); assay: Tumor cell proliferation inhibition (CCK8); format: cell-based; settings: IC50 of free drug / IC50 of polypeptide conjugate
From the text: as §1, §2, §3

[22] = system: BGC-823 (human gastric cancer cells); assay: Tumor cell proliferation inhibition (CCK8); format: cell-based; settings: IC50 of free drug / IC50 of polypeptide conjugate
From the text: as §1, §2, §3

[23] = system: MGC-803 (human gastric cancer cells); assay: Tumor cell proliferation inhibition (CCK8); format: cell-based; settings: IC50 of free drug / IC50 of polypeptide conjugate
From the text: as §1, §2, §3

[24] = system: MKN45 (human highly metastatic gastric cancer cells); assay: Tumor cell proliferation inhibition (CCK8); format: cell-based; settings: IC50 of free drug / IC50 of polypeptide conjugate
From the text: as §1, §2, §3

[25] = MKN45 xenograft, once every 3 days until day 21

CC(=O)O[C@@]12CO[C@@H]1C[C@H](O)[C@@]1(C)C(=O)[C@H](O)C3=C(C)[C@@H](OC(=O)[C@H](O)[C@@H](NC(=O)OC(C)(C)C)c4ccccc4)C[C@@](O)([C@@H](OC(=O)c4ccccc4)[C@H]21)C3(C)C [DOC, docetaxel]
IC50 [1]: 33.5 nM | IC50 [2]: 4.35 nM | IC50 [3]: 431 nM | IC50 [4]: 992 nM | IC50 [5]: 3.68 nM | IC50 [6]: 0.214 nM | IC50 [7]: 0.235 nM | IC50 [8]: 5.4 nM | Tumor Inhibition Rate [9]: 59.55% | Tumor Weight [9]: 283.00 ± 179.83 mg | body weight changes ([10]; MKN45 xenograft nude mice, during the administration period): showed weight loss | Tumor Inhibition Rate [10, 25]: 73.76±13.15% | Tumor Weight [10, 25]: 579 ± 391 mg | Final Tumor Volume ([10]; MKN45 xenograft, once every 3 days until day 21, in mm³ (unit assumed)): 256.67±391.25 | solubility at 15 min [11]: 0.0274 µg/mL (≈ 0.0339 µM)

CC(=O)O[C@H]1C(=O)[C@@]2(C)[C@H]([C@H](OC(=O)c3ccccc3)[C@]3(O)C[C@H](OC(=O)[C@H](O)[C@@H](NC(=O)c4ccccc4)c4ccccc4)C(C)=C1C3(C)C)[C@]1(OC(C)=O)CO[C@@H]1C[C@@H]2O [PTX, paclitaxel]
IC50 [3]: 9.4 nM | IC50 [12]: 0.19 nM | IC50 [13]: 0.17 nM | IC50 [14]: 8.11 nM | IC50 [15]: 23.6 nM | IC50 [16]: 3.21 nM | IC50 [17]: 43.9 nM | IC50 [18]: 0.77 nM | IC50 [19]: 38.6 nM | Tumor Inhibition Rate [20]: 47.6% | Tumor Weight [20]: 0.791 ± 0.151 g | Final Tumor Volume ([20]; in mm³ (unit assumed)): 782.0±105.9 | solubility at 15 min [11]: 0.12 µg/mL (≈ 0.141 µM)

CC(=O)O[C@H]1C(=O)[C@@]2(C)[C@H]([C@H](OC(=O)c3ccccc3)[C@]3(O)C[C@H](OC(=O)[C@H](OC(=O)CCCC(=O)N[C@@H](CCCNC(=N)N)C(=O)N[C@@H](CO)C(=O)N4CCC[C@H]4C(=O)N[C@@H](Cc4ccc(O)cc4)C(=O)N[C@@H](C)C(=O)N[C@@H](CC(N)=O)C(=O)N[C@@H](CO)C(=O)O)[C@@H](NC(=O)c4ccccc4)c4ccccc4)C(C)=C1C3(C)C)[C@]1(OC(C)=O)CO[C@@H]1C[C@@H]2O [PTX-5-AI]
Efficiency Ratios [21]: 2.13 | Efficiency Ratios [22]: 1.90 | Efficiency Ratios [23]: 1.27 | Efficiency Ratios [24]: 1.65
